This is an account of results in BindingDB's records for doi:10.1111/cbdd.12539 (Jagiellonian University Medical College, 2015).

The target in assay [1] is T1, 5-hydroxytryptamine receptor 1A (Homo sapiens, UniProt P08908).
T1 sequence (P08908 whole entry): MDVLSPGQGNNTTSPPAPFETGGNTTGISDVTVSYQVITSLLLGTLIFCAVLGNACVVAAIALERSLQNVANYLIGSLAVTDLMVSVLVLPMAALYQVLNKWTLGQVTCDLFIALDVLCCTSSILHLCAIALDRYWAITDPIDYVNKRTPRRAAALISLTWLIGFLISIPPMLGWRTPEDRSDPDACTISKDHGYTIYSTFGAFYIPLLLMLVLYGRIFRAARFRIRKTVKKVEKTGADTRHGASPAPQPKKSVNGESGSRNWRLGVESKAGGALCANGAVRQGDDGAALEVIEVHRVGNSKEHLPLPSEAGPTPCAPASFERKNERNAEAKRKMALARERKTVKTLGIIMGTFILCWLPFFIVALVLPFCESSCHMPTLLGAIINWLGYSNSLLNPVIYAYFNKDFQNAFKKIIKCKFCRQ
The assay is described as follows: Radioligand Binding Assay. As to conditions: 25 °C. How it is done:
All assays were incubated in a total volume of […] in 96-well microtiter plates for 1 h at 37 °C, except for 5-HT1ARs which were incubated at room temperature for 1 h. The process of equilibration was terminated by rapidfiltration through Unifilter plates with a 96-well cell harvester and radioactivity retained on the filters was quantified on a Microbeta plate reader.

Assay [2] addresses 5-hydroxytryptamine receptor 7 (Homo sapiens, UniProt P34969). The assay is described as follows: Radioligand Binding Assay. As to conditions: 25 °C.

Sequence of 5-hydroxytryptamine receptor 7 (P34969 whole entry): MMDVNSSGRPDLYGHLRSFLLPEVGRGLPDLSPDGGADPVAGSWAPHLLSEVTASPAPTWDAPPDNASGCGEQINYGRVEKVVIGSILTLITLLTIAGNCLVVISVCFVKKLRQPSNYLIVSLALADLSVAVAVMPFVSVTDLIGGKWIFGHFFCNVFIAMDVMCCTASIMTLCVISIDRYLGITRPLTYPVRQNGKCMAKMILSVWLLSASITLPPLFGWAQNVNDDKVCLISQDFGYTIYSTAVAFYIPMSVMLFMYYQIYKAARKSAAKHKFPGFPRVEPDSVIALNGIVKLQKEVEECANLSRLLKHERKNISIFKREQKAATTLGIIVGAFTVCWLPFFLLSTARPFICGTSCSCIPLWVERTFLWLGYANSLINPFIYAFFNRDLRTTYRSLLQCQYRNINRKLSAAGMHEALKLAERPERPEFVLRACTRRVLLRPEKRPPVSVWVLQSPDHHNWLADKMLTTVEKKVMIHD

Usually Ki stands for a dissociation constant, usually derived from enzyme kinetics or from competition with a known ligand. A high value points to weaker binding. As to `COc1ccccc1N1CCN(CCCCC2NC(c3ccccc3)=NNC2=O)CC1` (stereo not given) [5-{4-[4-(2-Methoxyphenyl)piperazin-1-yl]butyl}-3-phenyl-4,5-dihydro-1,2,4-triazin-6(1H)-one (12)], the Ki in assay [1] turned out to be 9 nM; in assay [2], 27 nM.

Take `CSc1ccccc1N1CCN(CCCCC2NC(c3ccccc3)=NNC2=O)CC1` (stereo not given) [5-{4-[4-(2-(Methylthio)phenyl)piperazin-1-yl]butyl}-3-phenyl-4,5-dihydro-1,2,4-triazin-6(1H)-one (13)]: the Ki in assay [1] was 28 nM; in assay [2], 17 nM.

For `O=C1NN=C(c2ccccc2Cl)NC1CCCCN1CCN(c2ccccc2F)CC1` (stereo not given) [3-(2-Chlorophenyl)-5-{4-[4-(2-fluorophenyl)piperazin-1-yl]butyl}-4,5-dihydro-1,2,4-triazin-6(1H)-one (17)], the Ki in assay [1] amounted to 37 nM; in assay [2] it was 91 nM.

On to `CSc1ccccc1N1CCN(CCCCC2NC(C3CCCCC3)=NNC2=O)CC1` (stereo not given) [3-Cyclohexyl-5-{4-[4-(2-(methylthio)phenyl)piperazin-1-yl]butyl}-4,5-dihydro-1,2,4-triazin-6(1H)-one (19)], for which the values for the Ki in assay [1] and in assay [2] were 14 nM and 6 nM, respectively.

As to `O=C1NN=C(c2ccccc2)NC1CCCCN1CCN(c2cccc(Cl)c2Cl)CC1` (stereo not given) [5-{4-[4-(2,3-Dichlorophenyl)piperazin-1-yl]butyl}-3-phenyl-4,5-dihydro-1,2,4-triazin-6(1H)-one (16)], the Ki in assay [1] stood at 70 nM; in assay [2], 16 nM.

In the case of `O=C1NN=C(c2ccccc2)NC1CCCCN1CCN(c2ccccc2F)CC1` (stereo not given) [5-{4-[4-(2-Fluorophenyl)piperazin-1-yl]butyl}-3-phenyl-4,5-dihydro-1,2,4-triazin-6(1H)-one (14)], the Ki was 119 nM in assay [1] and 100 nM in assay [2].

Consider `O=C1NN=C(c2ccccc2)NC1CCCCN1CCN(c2ccccc2)CC1` (stereo not given) [3-Phenyl-5-[4-(4-phenylpiperazin-1-yl)butyl]-4,5-dihydro-1,2,4-triazin-6(1H)-one (11)], for which the Ki in assay [1] turned out to be 79 nM; in assay [2], 95 nM.

On to `O=C1NN=C(c2ccccc2)NC1CCCCN1CCN(c2ccc(Cl)cc2)CC1` (stereo not given) [5-{4-[4-(4-Chlorophenyl)piperazin-1-yl]butyl}-3-phenyl-4,5-dihydro-1,2,4-triazin-6(1H)-one (15)], for which the Ki in assay [1] is 698 nM; in assay [2], 79 nM.

With `COc1ccccc1N1CCN(CCCCC2NC(C3CCCCC3)=NNC2=O)CC1` (stereo not given) [3-Cyclohexyl-5-{4-[4-(2-methoxyphenyl)piperazin-1-yl]butyl}-4,5-dihydro-1,2,4-triazin-6(1H)-one (18)], the Ki in assay [1] stood at 5 nM; in assay [2], 20 nM.

As for `O=C1NN=C(C2CCCCC2)NC1CCCCN1CCN(c2cccc(Cl)c2Cl)CC1` (stereo not given) [3-Cyclohexyl-5-{4-[4-(2,3-dichlorophenyl)piperazin-1-yl]butyl}-4,5-dihydro-1,2,4-triazin-6(1H)-one (20)], the Ki in assay [1] was determined as 32 nM; in assay [2], 5 nM.
